The data set has as its target T1, hydroxylated fatty acid dehydrogenase (CLA-DH) (Lactiplantibacillus plantarum, UniProt P0DX40).
T1 construct: made in house; host or cells: Escherichia coli (cell-free extract, not purified)
T1 sequence (P0DX40 1-286): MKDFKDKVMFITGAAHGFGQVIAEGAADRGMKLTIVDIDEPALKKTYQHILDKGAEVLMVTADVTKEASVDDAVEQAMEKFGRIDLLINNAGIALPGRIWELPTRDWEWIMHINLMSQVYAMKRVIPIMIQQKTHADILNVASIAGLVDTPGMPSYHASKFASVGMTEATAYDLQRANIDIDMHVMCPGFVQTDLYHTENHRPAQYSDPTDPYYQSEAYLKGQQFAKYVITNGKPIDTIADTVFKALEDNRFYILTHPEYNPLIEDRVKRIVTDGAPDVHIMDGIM
Put plainly: Comparison of oxidation stability: oxidation reaction with NAD+ in the presence of hydroxylated fatty acid dehydrogenase (CLA-DH), NADH measured at 340 nm. The class given is biochemical. Particulars: 0.143 mg/mL substrate (0.48 mM HYA), 4 mM NAD+, CLA-DH-expressing Escherichia coli cell-free extract, 37° C., about 6 min. On the procedure: The oxidation stability was compared between the reaction extract (homopolymer mixture) obtained in Example 1 and HYA. The oxidation reaction was performed using NAD^+ as an electron receptor in the presence of hydroxylated fatty acid dehydrogenase (CLA-DH) (S. Kishino et al., Polyunsaturated fatty acid saturation by gut lactic acid bacteria affecting host lipid composition. Proc. Natl. Acad. Sci. USA, 110(44), 17808-17813, 2013).
The reaction mixture (3 mL) contained CLA-DH-expressing Escherichia coli cell-free extract (150 μL, derived from 50 mg Escherichia coli wet cells) as hydroxylated fatty acid dehydrogenase, 4 mM NAD^+, 150 μL of ethanol, and 0.48 mM (0.143 mg/mL) HYA or equal amount (0.143 mg/mL) of a homopolymer mixture as a substrate, and the reaction was started by the addition of hydroxylated fatty acid dehydrogenase and performed at 37° C. for about 6 min. […] The progress of oxidation was quantified by measuring the change in absorbance at 340 nm of NADH amount produced by the oxidation of the substrate (the molecular absorption coefficient of NADH was 6.3×10^3 L·mol^−1 cm^−1).

Regarding `CCCCC/C=C\CC(O)CCCCCCCCC(=O)O` (stereo not drawn) [HYA, 10-hydroxy-cis-12-octadecenoic acid], the oxidation rate amounted to 2.9 µM/min.
